Laboratory results from patent US10022394B2, “Antiinfective composition” (priority 2011, dated 2018).

Test system: viruses
Assay: in vitro virucidal action
Details: as the degree of hydroxymethylation increases

In the case of hydroxymethyl-hyaluronic acid, the virucidal action is reported as “increased”.
